{
  "source": "ChEMBL document CHEMBL3871268",
  "about": "“Chalcogen containing heterocyclic scaffolds: New hybrids with antitumoral activity” (Eur J Med Chem, 2016)",
  "key": {"[1]": {"assay": "Cytotoxicity against human PC3 cells assessed as reduction in cell viability measured after 72 hrs by MTT assay", "format": "functional", "conditions": "PC-3, 72 h"}, "[2]": {"assay": "Cell cycle analysis in human MCF7 cells assessed as accumulation at G2/M phase at 50 uM measured after 48 hrs by propidium iodide staining-based flow cytometry (reference value: 8.5%)", "format": "functional"}, "[3]": {"assay": "Cell cycle arrest in human MCF7 cells assessed as M1 quadrant cells at 50 uM pretreated with pan-caspase inhibitor Z-VAD-FMK for 1 hr followed by compound addition measured after 48 hrs by propidium iodide staining-based flow cytometry assay (reference value: 98.1%)", "format": "functional", "parameters": "scale not given: the % may be the effect or the level left"}, "[4]": {"assay": "Cell cycle arrest in human MCF7 cells assessed as sub-diploid cells at 50 uM pretreated with autophagy inhibitor wortmannin for 1 hr followed by compound addition measured after 48 hrs by propidium iodide staining-based flow cytometry assay (reference value: 1.9%)", "format": "functional", "parameters": "scale not given: the % may be the effect or the level left"}, "[5]": {"assay": "Cell cycle analysis in human MCF7 cells assessed as accumulation at G0/G1 phase at 50 uM measured after 8 hrs by propidium iodide staining-based flow cytometry (reference value: 72.1%)", "format": "functional"}, "[6]": {"assay": "Cell cycle analysis in human MCF7 cells assessed as accumulation at SubG1 phase at 50 uM measured after 8 hrs by propidium iodide staining-based flow cytometry (reference value: 5.6%)", "format": "functional"}, "[7]": {"assay": "Cell cycle analysis in human MCF7 cells assessed as accumulation at G2/M phase at 50 uM measured after 16 hrs by propidium iodide staining-based flow cytometry (reference value: 8.5%)", "format": "functional"}, "[8]": {"test_system": "MCF7", "assay": "Selectivity index, ratio of GI50 for human 184B5 cells to GI50 for human MCF7 cells", "format": "functional"}, "[9]": {"assay": "Cell cycle analysis in human MCF7 cells assessed as accumulation at SubG1 phase at 50 uM measured after 4 hrs by propidium iodide staining-based flow cytometry (reference value: 5.6%)", "format": "functional"}, "[10]": {"assay": "Cell cycle analysis in human MCF7 cells assessed as accumulation at G0/G1 phase at 50 uM measured after 24 hrs by propidium iodide staining-based flow cytometry (reference value: 72.1%)", "format": "functional"}, "[11]": {"assay": "Cytotoxicity against human 184B5 cells assessed as reduction in cell viability measured after 72 hrs by MTT assay", "format": "toxicity, cell-based"}, "[12]": {"assay": "Cell cycle analysis in human MCF7 cells assessed as accumulation at G2/M phase at 50 uM measured after 8 hrs by propidium iodide staining-based flow cytometry (reference value: 8.5%)", "format": "functional"}, "[13]": {"assay": "Cell cycle analysis in human MCF7 cells assessed as accumulation at SubG1 phase at 50 uM by propidium iodide staining-based flow cytometry", "format": "functional", "conditions": "TDE = time-dependent effect"}, "[14]": {"assay": "Cell cycle analysis in human MCF7 cells assessed as accumulation at G2/M phase at 50 uM measured after 24 hrs by propidium iodide staining-based flow cytometry (reference value: 8.5%)", "format": "functional"}, "[15]": {"assay": "Cell cycle analysis in human MCF7 cells assessed as accumulation at G0/G1 phase at 50 uM measured after 48 hrs by propidium iodide staining-based flow cytometry (reference value: 72.1%)", "format": "functional"}, "[16]": {"assay": "Cell cycle analysis in human MCF7 cells assessed as accumulation at S phase at 50 uM measured after 16 hrs by propidium iodide staining-based flow cytometry (reference value: 13.2%)", "format": "functional"}, "[17]": {"assay": "Cell cycle arrest in human MCF7 cells assessed as M1 quadrant cells at 50 uM measured after 48 hrs by propidium iodide staining-based flow cytometry (reference value: 98.1%)", "format": "functional"}, "[18]": {"assay": "Cell cycle analysis in human MCF7 cells assessed as accumulation at G0/G1 phase at 50 uM measured after 16 hrs by propidium iodide staining-based flow cytometry (reference value: 72.1%)", "format": "functional"}, "[19]": {"assay": "Cell cycle analysis in human MCF7 cells assessed as accumulation at SubG1 phase at 50 uM measured after 48 hrs by propidium iodide staining-based flow cytometry (reference value: 5.6%)", "format": "functional"}, "[20]": {"assay": "Cell cycle analysis in human MCF7 cells assessed as accumulation at S phase at 50 uM measured after 8 hrs by propidium iodide staining-based flow cytometry (reference value: 13.2%)", "format": "functional"}, "[21]": {"assay": "Cytotoxicity against human MCF7 cells assessed as reduction in cell viability measured after 72 hrs by MTT assay", "format": "functional", "conditions": "MCF7, 72 h"}, "[22]": {"assay": "Cell cycle analysis in human MCF7 cells assessed as accumulation at G2/M phase at 50 uM measured after 4 hrs by propidium iodide staining-based flow cytometry (reference value: 8.5%)", "format": "functional"}, "[23]": {"assay": "Cell cycle analysis in human MCF7 cells assessed as accumulation at G0/G1 phase at 50 uM measured after 4 hrs by propidium iodide staining-based flow cytometry (reference value: 72.1%)", "format": "functional"}, "[24]": {"assay": "Cell cycle analysis in human MCF7 cells assessed as accumulation at S phase at 50 uM measured after 4 hrs by propidium iodide staining-based flow cytometry (reference value: 13.2%)", "format": "functional"}, "[25]": {"assay": "Cell cycle arrest in human MCF7 cells assessed as M1 quadrant cells at 50 uM pretreated with autophagy inhibitor wortmannin for 1 hr followed by compound addition measured after 48 hrs by propidium iodide staining-based flow cytometry assay (reference value: 98.1%)", "format": "functional", "parameters": "scale not given: the % may be the effect or the level left"}, "[26]": {"assay": "Cell cycle analysis in human MCF7 cells assessed as accumulation at S phase at 50 uM measured after 24 hrs by propidium iodide staining-based flow cytometry (reference value: 13.2%)", "format": "functional"}, "[27]": {"assay": "Cell cycle arrest in human MCF7 cells assessed as sub-diploid cells at 50 uM pretreated with pan-caspase inhibitor Z-VAD-FMK for 1 hr followed by compound addition measured after 48 hrs by propidium iodide staining-based flow cytometry assay (reference value: 1.9%)", "format": "functional", "parameters": "scale not given: the % may be the effect or the level left"}, "[28]": {"assay": "Cell cycle analysis in human MCF7 cells assessed as accumulation at S phase at 50 uM measured after 48 hrs by propidium iodide staining-based flow cytometry (reference value: 13.2%)", "format": "functional"}, "[29]": {"assay": "Cell cycle arrest in human MCF7 cells assessed as sub-diploid cells at 50 uM measured after 48 hrs by propidium iodide staining-based flow cytometry (reference value: 1.9%)", "format": "functional"}, "[30]": {"assay": "Cell cycle analysis in human MCF7 cells assessed as accumulation at SubG1 phase at 50 uM measured after 16 hrs by propidium iodide staining-based flow cytometry (reference value: 5.6%)", "format": "functional"}, "[31]": {"assay": "Cell cycle analysis in human MCF7 cells assessed as accumulation at SubG1 phase at 50 uM measured after 24 hrs by propidium iodide staining-based flow cytometry (reference value: 5.6%)", "format": "functional"}},
  "data": [
    {"smiles": "N#C[Se]Cc1ccc(-n2cccc2)cc1", "values": [
      {"measurement": "GI50", "setting": "[1]", "value": 59.9, "unit": "µM"},
      {"measurement": "LC50 (concentration lethal to 50% of cells)", "setting": "[1]", "value": "> 100", "unit": "µM"},
      {"measurement": "TGI", "setting": "[1]", "value": "> 100", "unit": "µM"},
      {"measurement": "Activity", "setting": "[2]", "value": 10.3, "unit": "%"},
      {"measurement": "Activity", "setting": "[3]", "value": 81.7, "unit": "%"},
      {"measurement": "Activity", "setting": "[4]", "value": 30.8, "unit": "%"},
      {"measurement": "Activity", "setting": "[5]", "value": 61.4, "unit": "%"},
      {"measurement": "Activity", "setting": "[6]", "value": 2.9, "unit": "%"},
      {"measurement": "Activity", "setting": "[7]", "value": 17.2, "unit": "%"},
      {"measurement": "RatioGI50", "setting": "[8]", "value": ">41.8"},
      {"measurement": "Activity", "setting": "[9]", "value": 2.2, "unit": "%"},
      {"measurement": "Activity", "setting": "[10]", "value": 55.7, "unit": "%"},
      {"measurement": "GI50 at 72 h", "setting": "[11]; 184B5 cells", "value": "> 100", "unit": "µM"},
      {"measurement": "LC50", "setting": "[11]; 184b5, 72 h", "value": "> 100", "unit": "µM"},
      {"measurement": "TGI", "setting": "[11]; 184b5, 72 h", "value": "> 100", "unit": "µM"},
      {"measurement": "Activity", "setting": "[12]", "value": 18.4, "unit": "%"},
      {"measurement": "Activity", "setting": "[13]", "value": "Tde"},
      {"measurement": "Activity", "setting": "[14]", "value": 14, "unit": "%"},
      {"measurement": "Activity", "setting": "[15]", "value": 53.6, "unit": "%"},
      {"measurement": "Activity", "setting": "[16]", "value": 17.6, "unit": "%"},
      {"measurement": "Activity", "setting": "[17]", "value": 67.8, "unit": "%"},
      {"measurement": "Activity", "setting": "[18]", "value": 53.7, "unit": "%"},
      {"measurement": "Activity", "setting": "[19]", "value": 25.2, "unit": "%"},
      {"measurement": "Activity", "setting": "[20]", "value": 17.8, "unit": "%"},
      {"measurement": "GI50", "setting": "[21]", "value": 2.4, "unit": "µM"},
      {"measurement": "LC50", "setting": "[21]", "value": "> 100", "unit": "µM"},
      {"measurement": "TGI", "setting": "[21]", "value": "> 100", "unit": "µM"},
      {"measurement": "Activity", "setting": "[22]", "value": 18.7, "unit": "%"},
      {"measurement": "Activity", "setting": "[23]", "value": 59.6, "unit": "%"},
      {"measurement": "Activity", "setting": "[24]", "value": 19.3, "unit": "%"},
      {"measurement": "Activity", "setting": "[25]", "value": 69.2, "unit": "%"},
      {"measurement": "Activity", "setting": "[26]", "value": 17.2, "unit": "%"},
      {"measurement": "Activity", "setting": "[27]", "value": 18.2, "unit": "%"},
      {"measurement": "Activity", "setting": "[28]", "value": 9.1, "unit": "%"},
      {"measurement": "Activity", "setting": "[29]", "value": 32.2, "unit": "%"},
      {"measurement": "Activity", "setting": "[30]", "value": 9.4, "unit": "%"},
      {"measurement": "Activity", "setting": "[31]", "value": 13.1, "unit": "%"}
    ]}
  ]
}
